Here are results for twelve molecules from publication PMC5618421, “Anti-Inflammatory Effects of Curvularin-Type Metabolites from a Marine-Derived Fungal Strain Penicillium sp. SF-5859 in Lipopolysaccharide-Induced RAW264.7 Macrophages” (Marine Drugs, 2017).

Series [1] concerns PGE2 production in LPS-treated RAW 264.7 macrophages. The series can be described thus: Inhibition of PGE2 production (PGE2 ELISA kit) in LPS-treated RAW264.7 macrophages. The format is cell-based. The following applies: Mus musculus, RAW264.7 macrophages pre-treated 3 h with compound, then LPS (1 μg/mL) 24 h. The protocol:
(§1) All isolated compounds (1–9) were evaluated for their anti-inflammatory effects. […] NO is a small molecule which is an intracellular mediator produced in various immune cells. It plays a pivotal role in the physiological and pathological condition of inflammatory symptoms. PGE2 can also regulate the immune and inflammatory responses. In this study, RAW264.7 macrophages were pre-treated for 3 h in the medium containing non-toxic concentrations (Table 2) of each compound (1–9), and then LPS (1 μg/mL) was treated for 24 h. According to the LPS stimulation of RAW264.7 macrophages, production of NO and PGE2 was increased, and the effects of all compounds on the production level of NO and PGE2 were evaluated by the Griess reaction and a PGE2 kit, respectively. […] To evaluate the impact of phenol and resorcinol groups in the curvularin-type metabolites for the anti-inflammatory activity, 5-O-methyl and 5,7,-di-O-methyl derivatives of curvularin (3a and 3b, respectively), as well as 5-O-acetyl and 5,7,-di-O-acetyl derivatives of curvularin (3c and 3d, respectively), were prepared, and the structures of 3a–3d were identified by comparison the ^1H and ^13C-NMR spectroscopic data with those of curvularin (3), and confirmed by their HRESIMS. […] The position of the methoxy group in 3a was confirmed by HMBC correlation between methoxy signal at δH 3.77 (3H, s, 5-OCH3) and δC 161.8 (C-5). The NOESY cross-peaks between acetyl proton ([…]) with H-2, H-4, and H-16 of 3c were used to identify the position of the acetyl group in 3c. […] Further systematic investigations are needed to clarify the structure activity relationship associated with the modification of the aliphatic part of the molecule.
RPMI1640, fetal bovine serum (FBS), and other tissue culture reagents were purchased from Gibco BRL Co. (Grand Island, NY, USA). All other chemicals were obtained from Sigma-Aldrich Co. (St. Louis, MO, USA). Primary antibodies (COX-2: sc-1745; iNOS: sc-650; IκB-α: sc-371; p-IκB-α: sc-8404; p50: sc-7178; p65: sc-8008, Santa Cruz Biotechnology, Dallas, TX, USA, p-ERK: #9101; ERK: #9102; p-JNK: #9251; JNK: #9252S; p-p38: #9211; p38: 9212S, Cell Signaling Technology, Danvers, MA, USA) and secondary antibodies (mouse: ap124p; goat: ap106p; rabbit: ap132p, Millipore, Billerica MA, USA). Enzyme-linked immunosorbent assay (ELISA) kits for PGE2 were purchased from R and D Systems, Inc. (Minneapolis, MN, USA).

The subject of series [2] is NO production in LPS-treated RAW 264.7 macrophages. The series can be described thus: Inhibition of NO production (nitrite, Griess reaction) in LPS-treated RAW264.7 macrophages. It is filed as cell-based. The following applies: for inhibitory activity on LPS-induced production of NO and PGE2 (in words): LPS-stimulated RAW264.7 macrophages; for IC50: Mus musculus, RAW264.7 macrophages pre-treated 3 h with compound, then LPS (1 μg/mL) 24 h, Griess reaction. Here is the method: as §1
As an indicator of NO production in RAW264.7 macrophages, production of nitrite, a stable end-product of NO oxidation, was estimated. Briefly, the concentration of nitrite in the conditioned media was determined by a method based on the Griess reaction, and the details of the assay were described previously.

The test system of a further series is RAW264.7 macrophages. Briefly: Cell viability (MTT) cytotoxic assay. The format is cell-based. Here is the method:
RAW264.7 macrophages were maintained at a density of 5 × 10^5 cells/mL in RPMI1640 medium supplemented with 10% heat-inactivated FBS, penicillin G (100 units/mL), streptomycin ([…]), and L-glutamine (2 mM), and were incubated at 37 °C in a humidified atmosphere containing 5% CO2. For determination of cell viability, cells (1 × 10^5 cells/well in 96-well plates) were incubated with 3-(4,5-dimethylthiazol-2-yl)-2,5-diphenyltetrazolium bromide (MTT) at a final concentration of 0.5 mg/mL for 3 h, and the formazan formed was dissolved in acidic 2-propanol. The optical density was measured at 540 nm with a microplate reader (BioRad, Hercules, CA, USA). The optical density of the formazan formed in control (untreated) cells was considered to represent 100% viability.

The test system of series [3] is pro-inflammatory cytokines and chemokines. More on the design: method as in PMID 22767531. The following applies: mice model of chronic induced arthritis; cited from earlier work.
Another series deals with iNOS and COX-2. Also on record: method as in PMID 18366037, PMID 12527810. As to conditions: human alveolar epithelial A549/8 cells; through blocking activation of STAT-1α; cited from earlier work.
The subject of a further series is human iNOS promotor. Also on record: method as in PMID 18366037. The following applies: human alveolar epithelial A549/8 cells; compared with (S)-curvularin (3); cited from earlier work.
For a further series, the system named is E. coli. More on the design: method as in PMID 26119337. The following applies: growth of E. coli; cited from earlier work.

Where only a bound is given, the exact number is not on record here.

Consider `C[C@H]1CCC[C@@H](CC(=O)c2c(O)cc(O)cc2CC(=O)O)O1` [Compound 1, curvulone C], for which, in series [1], the IC50 is > 80 µM. In addition, in series [2], the “inhibitory activity on LPS-induced production of NO and PGE2 (in words)” value is “appeared to lose the inhibitory activity”; the IC50 is > 80 µM. The “Cytotoxicity (the maximum concentration not affecting cell viability)” value in the series with RAW264.7 macrophages (RAW264.7 macrophages, MTT) was >80 µM.
Consider `COC(=O)Cc1cc(O)cc(O)c1C(=O)C[C@H]1CCC[C@@H](C)O1` [Compound 2, curvulone B], for which the IC50 in series [1] and in series [2] was > 80 µM in each case. In addition, the “inhibitory activity on LPS-induced production of NO and PGE2 (in words)” value in series [2] is reported as “appeared to lose the inhibitory activity”. For the same molecule, in the series on RAW264.7 macrophages (RAW264.7 macrophages, MTT), the “Cytotoxicity (the maximum concentration not affecting cell viability)” value was >80 µM.
As to `CC1CCCCCC(=O)c2c(O)cc(O)cc2CC(=O)O1` (centres unmarked) [Compound 3, curvularin], the “expression of pro-inflammatory cytokines and chemokines” value in series [3] is on record as “suppressive effect”. The “inducible transcription and synthesis of iNOS and COX-2” value with iNOS and COX-2 is “inhibited inducible transcription and synthesis of iNOS and COX-2”. The “Cytotoxicity (the maximum concentration not affecting cell viability)” value in the series on RAW264.7 macrophages (mouse) was determined as 40 µM.
Consider `COc1cc(O)c2c(c1)CC(=O)O[C@@H](C)CCCCCC2=O` [Compound 3a, 5-O-methylcurvularin], for which the “Cytotoxicity (the maximum concentration not affecting cell viability)” value with RAW264.7 macrophages (RAW264.7 macrophages, MTT) is >80 µM.
Take `COc1cc2c(c(OC)c1)C(=O)CCCCC[C@H](C)OC(=O)C2` [Compound 3b, 5,7-Di-O-methylcurvularin]: the results for the IC50 in series [1] and in series [2] were 49.4 ± 14 µM and 60.6 ± 16.4 µM, respectively. Further, the “Cytotoxicity (the maximum concentration not affecting cell viability)” value with RAW264.7 macrophages (RAW264.7 macrophages, MTT) was >80 µM.
For `CC(=O)Oc1cc(O)c2c(c1)CC(=O)O[C@@H](C)CCCCCC2=O` [Compound 3c, 5-O-acetylcurvularin] the same measures were 73.7 ± 17.1 µM, 46.9 ± 3.7 µM and >80 µM.
Take `CC(=O)Oc1cc2c(c(OC(C)=O)c1)C(=O)CCCCC[C@H](C)OC(=O)C2` [Compound 3d, 5,7-Di-O-acetylcurvularin]: the IC50 was > 80 µM in series [1] and 77.5 ± 9.3 µM in series [2]. In addition, the “Cytotoxicity (the maximum concentration not affecting cell viability)” value in the series with RAW264.7 macrophages (RAW264.7 macrophages, MTT) is >80 µM. Further, the “inhibitory effect on the cytokine-mediated induction of the iNOS promotor” value in the series on human iNOS promotor is “higher inhibitory effect”.
Turning to `C[C@H]1CCC[C@@H](O)CC(=O)c2c(O)cc(O)cc2CC(=O)O1` [Compound 4, (11R,15S)-11-hydroxycurvularin], in the series with E. coli, the antibacterial activity result is reported as “inhibiting the growth of E. coli”. The IC50 in series [1] is 15.6 ± 5.2 µM; in series [2], 11.5 ± 2.7 µM. In the series with RAW264.7 macrophages (RAW264.7 macrophages, MTT), the “Cytotoxicity (the maximum concentration not affecting cell viability)” value was determined as 40 µM.
With `C[C@H]1CCC[C@H](O)CC(=O)c2c(O)cc(O)cc2CC(=O)O1` [Compound 5, (11S,15S)-11-hydroxycurvularin], in the series on E. coli, the antibacterial activity result is on record as “inhibiting the growth of E. coli”. The IC50 in series [1] was 14.1 ± 4 µM; in series [2], 7.2 ± 1.6 µM. The “Cytotoxicity (the maximum concentration not affecting cell viability)” value with RAW264.7 macrophages (RAW264.7 macrophages, MTT) stood at 40 µM.
Consider `CO[C@@H]1CCC[C@H](C)OC(=O)Cc2cc(O)cc(O)c2C(=O)C1` [Compound 6, (11R,15S)-11-methoxycurvularin], for which the “Cytotoxicity (the maximum concentration not affecting cell viability)” value with RAW264.7 macrophages (RAW264.7 macrophages, MTT) was 20 µM.
For the molecule `CO[C@H]1CCC[C@H](C)OC(=O)Cc2cc(O)cc(O)c2C(=O)C1` [Compound 7, (11S,15S)-11-methoxycurvularin], the “Cytotoxicity (the maximum concentration not affecting cell viability)” value in the series with RAW264.7 macrophages (RAW264.7 macrophages, MTT) amounted to 20 µM.
Turning to `C[C@H]1CCC/C=C\C(=O)c2c(O)cc(O)cc2CC(=O)O1` [Compound 9, (10Z,15S)-10,11-dehydrocurvularin], the figures for the IC50 in series [1] and in series [2] were 6.2 ± 1.1 µM and 4.4 ± 0.8 µM, respectively. For the same molecule, in the series on RAW264.7 macrophages (RAW264.7 macrophages, MTT), the “Cytotoxicity (the maximum concentration not affecting cell viability)” value came out at 20 µM.
